Data as given in PubChem BioAssay AID182 (DTP/NCI, 2004).
“And” between values parts separate entries of the source, which are not always exact repeats. Identical values can stand only once. Inconclusive results and toxic doses are left out. Starred links: 1 amine or outer side, 2 acyl side, 3 side chain; linkers in the order of their positions; H or OH if unused. Positions of bridges follow the written chain, without caps; N, C: chain ends. Non-standard residues stand in square brackets, D forms with d. Residues, ends and D or L forms follow the SMILES beside them. Chains are numbered I, II in the order given. Actinocin(9to1) = Cc1c2oc3c(C)ccc(C(=O)[*:1])c3nc-2c(C(=O)[*:2])c(N)c1=O; aThr = C[C@H](O)[C@H](N)C(=O)O; NMeV = CN[C@H](C(=O)O)C(C)C; Sar = CNCC(=O)O

System: BDF1 mice, P388/ADR leukemia ip, median survival T/C
Experiment: NCI In Vivo Anticancer Drug Screen. Data for tumor model P388 Leukemia resistant to Adriamycin; NSC 123127, Developed at Scr 06 and 41 (intraperitoneal) in B6D2F1 (BDF1) mice
Details: endpoint: median survival time, higher = longer survival
Description: The antitumor activity of compounds was measured in mice bearing transplantable tumors. Survival or tumor size were measured and the results are expressed as the measurement made in the treated group (T) divided by the measurement made in the vehicle treated control group (C). The tumor model used in this assay is P388 Leukemia resistant to Adriamycin; NSC 123127, Developed at Scr 06 and 41 (intraperitoneal) in B6D2F1 (BDF1) mice

[1] = dose: 1.73 mg/kg/injection, schedule: Q04DX003 (ip), vehicle: water
[2] = dose: 2.88 mg/kg/injection, schedule: Q04DX003 (ip), vehicle: water
[3] = dose: 4.8 mg/kg/injection, schedule: Q04DX003 (ip), vehicle: water
[4] = dose: 18.0 mg/kg/injection, schedule: Q04DX003 (ip), vehicle: saline
[5] = dose: 36.0 mg/kg/injection, schedule: Q04DX003 (ip), vehicle: saline
[6] = dose: 21.6 mg/kg/injection, schedule: Q04DX003 (ip), vehicle: saline

## CC[C@@]1(O)C[C@H](OC2CC(N(C)C)C(OC3CC(O)C(OC4CCC(=O)C(C)O4)C(C)O3)C(C)O2)c2c(cc3c(c2O)C(=O)c2c(O)ccc(O)c2C3=O)[C@H]1C(=O)OC (stereo partly drawn)
dose: 0.65 mg/kg/injection, schedule: Q01DX009 (ip), vehicle: water
  T/C: 110 % of control
dose: 1.08 mg/kg/injection, schedule: Q01DX009 (ip), vehicle: water
  T/C: 120 % of control
[1]
  T/C: 115 % of control and 124 % of control
dose: 2.5 mg/kg/injection, schedule: Q04DX003 (ip), vehicle: water
  T/C: 116 % of control
[2]
  T/C: 119 % of control
dose: 3.0 mg/kg/injection, schedule: Q01DX009 (ip), vehicle: water
  T/C: 90 % of control
dose: 4.8 mg/kg/injection, schedule: Q04DX003 (ip), vehicle: other
  T/C: 119 % of control
[3]
  T/C: 150 % of control
dose: 5.0 mg/kg/injection, schedule: Q04DX003 (ip), vehicle: water
  T/C: 110 % of control

## O=CC(NC(=O)N(CCCl)N=O)C(O)C(O)C(O)CO (stereo not drawn)
dose: 6.48 mg/kg/injection, schedule: Q04DX003 (ip), vehicle: saline
  T/C: 240 % of control
dose: 10.8 mg/kg/injection, schedule: Q04DX003 (ip), vehicle: saline
  T/C: 553 % of control
[4]
  T/C: 120 % of control

## COc1cccc2c1C(=O)c1c(O)c3c(c(O)c1C2=O)C[C@@](O)(/C(C)=N/NC(=O)c1ccccc1)C[C@@H]3OC1CC(N)C(O)C(C)O1 (stereo partly drawn)
dose: 6.5 mg/kg/injection, schedule: Q04DX003 (ip), vehicle: water
  T/C: 107 % of control
dose: 10.8 mg/kg/injection, schedule: Q04DX003 (ip), vehicle: water
  T/C: 115 % of control
dose: 18.0 mg/kg/injection, schedule: Q04DX003 (ip), vehicle: water
  T/C: 105 % of control

## N[C@H](C(=O)O)[C@@H]1CC(Cl)=NO1
[5]
  T/C: 122 % of control

## Cc1c2oc3c(C)ccc(C(=O)N[C@@H]4C(=O)N[C@H](C(C)C)C(=O)N5CCC[C@H]5C(=O)N(C)CC(=O)N(C)[C@@H](C(C)C)C(=O)O[C@H]4C)c3nc-2c(C(=O)N[C@@H]2C(=O)N[C@H](C(C)C)C(=O)N3CCC[C@H]3C(=O)N(C)CC(=O)N(C)[C@@H](C(C)C)C(=O)O[C@H]2C)c(N)c1=O (I: [aThr][dV]P[Sar][NMeV] / II: [aThr][dV]P[Sar][NMeV]; ester I:1-I:C, II:1-II:C; linker I:N-II:N via Actinocin(9to1))
dose: 0.3 mg/kg/injection, schedule: Q04DX003 (ip), vehicle: saline
  T/C: 173 % of control
dose: 108.0 micrograms/kg/injection, schedule: Q04DX003 (ip), vehicle: saline + alcohol
  T/C: 111 % of control and 201 % of control
dose: 180.0 micrograms/kg/injection, schedule: Q04DX003 (ip), vehicle: saline + alcohol
  T/C: 118 % of control
dose: 300.0 micrograms/kg/injection, schedule: Q04DX003 (ip), vehicle: saline + alcohol
  T/C: 116 % of control and 117 % of control
dose: 500.0 micrograms/kg/injection, schedule: Q04DX003 (ip), vehicle: saline + alcohol
  T/C: 88 % of control

## O=c1[nH]cc(F)c(=O)[nH]1
[6]
  T/C: 150 % of control
[5]
  T/C: 174 % of control
dose: 60.0 mg/kg/injection, schedule: Q04DX003 (ip), vehicle: saline
  T/C: 192 % of control

## CCC1(O)CC(OC2CC(N(C)C)C(OC3CC(O)C(OC4CCC(=O)C(C)O4)C(C)O3)C(C)O2)c2c(cc3c(c2O)C(=O)c2c(O)ccc(O)c2C3=O)C1C(=O)OC (stereo not drawn)
[1]
  T/C: 105 % of control
[2]
  T/C: 107 % of control
[3]
  T/C: 119 % of control

## CC[C@H]1CN2CCc3cc(OC)c(OC)cc3[C@@H]2C[C@@H]1C[C@H]1NCCc2cc(OC)c(OC)cc21
dose: 7.78 mg/kg/injection, schedule: Q04DX003 (ip), vehicle: saline
  T/C: 106 % of control
dose: 9.0 mg/kg/injection, schedule: Q04DX003 (ip), vehicle: saline
  T/C: 94 % of control
dose: 13.0 mg/kg/injection, schedule: Q04DX003 (ip), vehicle: saline
  T/C: 114 % of control
[4]
  T/C: 100 % of control
[6]
  T/C: 106 % of control

## COc1cccc2c1C(=N)c1c(O)c3c(c(O)c1C2=O)C[C@@](O)(C(C)=O)C[C@@H]3OC1CC(N)C(O)C(C)O1 (stereo partly drawn)
dose: 3.46 mg/kg/injection, schedule: Q04DX003 (ip), vehicle: saline
  T/C: 99 % of control
dose: 5.76 mg/kg/injection, schedule: Q04DX003 (ip), vehicle: saline
  T/C: 102 % of control
dose: 9.6 mg/kg/injection, schedule: Q04DX003 (ip), vehicle: saline
  T/C: 115 % of control
dose: 16.0 mg/kg/injection, schedule: Q04DX003 (ip), vehicle: saline
  T/C: 104 % of control

## COc1cccc2c1C(=O)c1c(O)c3c(c(O)c1C2=O)C[C@@](O)(C(C)=O)C[C@@H]3OC1CC(N)C(O)C(C)O1 (stereo partly drawn)
[1]
  T/C: 122 % of control
[2]
  T/C: 114 % of control
[3]
  T/C: 121 % of control
dose: 8.0 mg/kg/injection, schedule: Q04DX003 (ip), vehicle: water
  T/C: 104 % of control and 107 % of control

## CC[C@H]1CN2CCc3cc(OC)c(OC)cc3[C@@H]2C[C@@H]1C[C@H]1NCCc2c1[nH]c1ccc(OC)cc21
dose: 10.8 mg/kg/injection, schedule: Q04DX003 (ip), vehicle: acid diluted with saline
  T/C: 108 % of control
dose: 18.0 mg/kg/injection, schedule: Q04DX003 (ip), vehicle: acid diluted with saline
  T/C: 107 % of control
dose: 30.0 mg/kg/injection, schedule: Q04DX003 (ip), vehicle: acid diluted with saline
  T/C: 110 % of control

## CCC1(O)CC2CN(CCc3c([nH]c4ccccc34)C(C(=O)OC)(c3cc4c(cc3OC)N(C)C3C(O)(C(N)=O)C(O)C5(CC)C=CCN6CCC43C65)C2)C1 (stereo not drawn) (tested in a mixture with another compound)
dose: 0.65 mg/kg/injection, schedule: Q04DX003 (ip), vehicle: saline
  T/C: 107 % of control
dose: 1.08 mg/kg/injection, schedule: Q04DX003 (ip), vehicle: saline
  T/C: 111 % of control
dose: 1.8 mg/kg/injection, schedule: Q04DX003 (ip), vehicle: saline
  T/C: 101 % of control
dose: 3.0 mg/kg/injection, schedule: Q04DX003 (ip), vehicle: saline
  T/C: 86 % of control

## CC(=O)[C@]1(O)Cc2c(O)c3c(c(O)c2[C@@H](OC2CC(N)C(O)C(C)O2)C1)C(=O)c1c(O)cccc1C3=O (stereo partly drawn)
dose: 0.32 mg/kg/injection, schedule: Q04DX003 (ip), vehicle: water
  T/C: 108 % of control
dose: 0.39 mg/kg/injection, schedule: Q04DX003 (ip), vehicle: water
  T/C: 118 % of control
dose: 0.54 mg/kg/injection, schedule: Q04DX003 (ip), vehicle: water
  T/C: 88 % of control
dose: 0.65 mg/kg/injection, schedule: Q04DX003 (ip), vehicle: water
  T/C: 123 % of control

## COc1cc(NS(C)(=O)=O)ccc1Nc1c2ccccc2nc2ccccc12
dose: 3.6 mg/kg/injection, schedule: Q04DX003 (ip), vehicle: other
  T/C: 123 % of control
dose: 5.4 mg/kg/injection, schedule: Q04DX003 (ip), vehicle: clinical formulation
  T/C: 106 % of control
dose: 9.0 mg/kg/injection, schedule: Q04DX003 (ip), vehicle: clinical formulation
  T/C: 114 % of control

## CC[C@@]1(O)C[C@H](OC2CC(N(C)C)C(OC3CC(O)C(OC4CC(O)C(O)C(C)O4)C(C)O3)C(C)O2)c2c(cc3c(c2O)C(=O)c2c(O)ccc(O)c2C3=O)[C@H]1C(=O)OC (stereo partly drawn)
dose: 1.08 mg/kg/injection, schedule: Q04DX003 (ip), vehicle: water
  T/C: 106 % of control
dose: 1.8 mg/kg/injection, schedule: Q04DX003 (ip), vehicle: water
  T/C: 109 % of control
dose: 3.0 mg/kg/injection, schedule: Q04DX003 (ip), vehicle: water
  T/C: 120 % of control

## CCCCCCCC(=O)OCC(=O)[C@]1(O)Cc2c(O)c3c(c(O)c2[C@@H](OC2CC(N)C(O)C(C)O2)C1)C(=O)c1c(OC)cccc1C3=O (stereo partly drawn)
[2]
  T/C: 121 % of control

## COc1cccc2c1C(=O)c1c(O)c3c(c(O)c1C2=O)C[C@@](O)(C(C)=O)C[C@@H]3OC1CC(N(C)C)C(O)C(C)O1 (stereo partly drawn)
dose: 3.46 mg/kg/injection, schedule: Q04DX003 (ip), vehicle: water
  T/C: 114 % of control
dose: 5.76 mg/kg/injection, schedule: Q04DX003 (ip), vehicle: water
  T/C: 121 % of control
dose: 9.6 mg/kg/injection, schedule: Q04DX003 (ip), vehicle: water
  T/C: 113 % of control
dose: 16.0 mg/kg/injection, schedule: Q04DX003 (ip), vehicle: water
  T/C: 104 % of control

## COc1ccc(CC2C(=O)NC(C)C(=O)N(C)C3Cc4ccc(cc4)Oc4cc(ccc4O)CC(C(=O)NC(C)C(=O)NC(C)C(=O)N2C)N(C)C3=O)cc1 (stereo not drawn)
dose: 4.32 mg/kg/injection, schedule: Q04DX003 (ip), vehicle: other
  T/C: 109 % of control
dose: 7.2 mg/kg/injection, schedule: Q04DX003 (ip), vehicle: other
  T/C: 94 % of control
dose: 12.0 mg/kg/injection, schedule: Q04DX003 (ip), vehicle: other
  T/C: 88 % of control

## S=c1nc[nH]c2nc[nH]c12
dose: 43.2 mg/kg/injection, schedule: Q01DX009 (ip), vehicle: alkali diluted with saline
  T/C: 100 % of control
dose: 72.0 mg/kg/injection, schedule: Q01DX009 (ip), vehicle: alkali diluted with saline
  T/C: 105 % of control

## COC1C(O)C(C)OC(OC2C(Oc3cccc4c(O)c5c(=O)oc6ccc(C)c7c(=O)oc(c34)c5c67)OC(C)C(O)C2O)C1O (stereo not drawn)
dose: 43.2 mg/kg/injection, schedule: Q04DX003 (ip), vehicle: Klucel (hydroxypropylcellulose) (HPC)
  T/C: 87 % of control
